Several values for one entry are separate records, joined by “and”; a condition that tells them apart may be missing. Equal values may be shown once. Toxic doses and inconclusive results are not listed.
System: CD2F1 mice, L1210 leukemia ip, survival T/C
Assay: NCI In Vivo Anticancer Drug Screen. Data for tumor model L1210 Leukemia (intraperitoneal) in CD2F1 (CDF1) mice
Settings: higher = longer survival
Outline: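 Mice carrying a transplanted tumor received test compound or vehicle alone. The value is the measurement in the treated group divided by that in the vehicle-treated control group.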

[1] = endpoint: mean survival time, dose: 100.0 mg/kg/injection, schedule: Q04DX003 (ip), vehicle: saline
[2] = endpoint: mean survival time, dose: 200.0 mg/kg/injection, schedule: Q04DX003 (ip), vehicle: saline
[3] = endpoint: mean survival time, dose: 100.0 mg/kg/injection, schedule: Q04DX003 (ip), vehicle: saline with Tween-80
[4] = endpoint: mean survival time, dose: 200.0 mg/kg/injection, schedule: Q04DX003 (ip), vehicle: saline with Tween-80
[5] = endpoint: mean survival time, dose: 400.0 mg/kg/injection, schedule: Q04DX003 (ip), vehicle: saline with Tween-80
[6] = endpoint: mean survival time, dose: 50.0 mg/kg/injection, schedule: Q01DX009 (ip), vehicle: saline with Tween-80
[7] = endpoint: mean survival time, dose: 100.0 mg/kg/injection, schedule: Q01DX009 (ip), vehicle: saline with Tween-80
[8] = endpoint: mean survival time, dose: 200.0 mg/kg/injection, schedule: Q01DX009 (ip), vehicle: saline with Tween-80

O=C(Nc1cccc(C2=NCCN2)c1)c1ccc(C(=O)Nc2cccc(C3=NCCN3)c2)c(Cl)c1
T/C (endpoint: mean survival time, dose: 1.0 mg/kg/injection, schedule: Q01DX009 (ip), vehicle: saline): 95 % of control | T/C (endpoint: mean survival time, dose: 2.0 mg/kg/injection, schedule: Q01DX009 (ip), vehicle: saline): 92 % of control | T/C (endpoint: mean survival time, dose: 4.0 mg/kg/injection, schedule: Q01DX009 (ip), vehicle: saline): 98 % of control | T/C (endpoint: mean survival time, dose: 8.0 mg/kg/injection, schedule: Q01DX009 (ip), vehicle: saline): 113 % of control

CN(C)N=Nc1ccc(C(=O)O)cc1
T/C (endpoint: mean survival time, dose: 25.0 mg/kg/injection, schedule: Q01DX009 (ip), vehicle: saline): 112 % of control | T/C (endpoint: mean survival time, dose: 25.0 mg/kg/injection, schedule: Q04DX003 (ip), vehicle: saline): 96 % of control | T/C (endpoint: mean survival time, dose: 45.0 mg/kg/injection, schedule: Q01DX009 (ip), vehicle: saline): 124 % of control | T/C (endpoint: mean survival time, dose: 50.0 mg/kg/injection, schedule: Q01DX009 (ip), vehicle: saline): 124 % of control | T/C (endpoint: mean survival time, dose: 50.0 mg/kg/injection, schedule: Q04DX003 (ip), vehicle: saline): 102 % of control | T/C (endpoint: mean survival time, dose: 65.0 mg/kg/injection, schedule: Q01DX009 (ip), vehicle: saline): 154 % of control | T/C (endpoint: mean survival time, dose: 100.0 mg/kg/injection, schedule: Q01DX009 (ip), vehicle: saline): 172 % of control | T/C [1]: 109 % of control | T/C (endpoint: mean survival time, dose: 200.0 mg/kg/injection, schedule: Q01DX009 (ip), vehicle: saline): 90 % of control | T/C [2]: 123 % of control | T/C (endpoint: mean survival time, dose: 400.0 mg/kg/injection, schedule: Q04DX003 (ip), vehicle: saline): 103 % of control | T/C (endpoint: median survival time, dose: 25.0 mg/kg/injection, schedule: Q01DX005 (ip), vehicle: saline): 122 % of control | T/C (endpoint: median survival time, dose: 36.0 mg/kg/injection, schedule: Q01DX005 (ip), vehicle: saline): 116 % of control | T/C (endpoint: median survival time, dose: 50.0 mg/kg/injection, schedule: Q01DX005 (ip), vehicle: saline): 124 % of control | T/C (endpoint: median survival time, dose: 100.0 mg/kg/injection, schedule: Q01DX005 (ip), vehicle: saline): 151 % of control and 170 % of control | T/C (endpoint: median survival time, dose: 166.6 mg/kg/injection, schedule: Q01DX005 (ip), vehicle: saline): 179 % of control | T/C (endpoint: median survival time, dose: 200.0 mg/kg/injection, schedule: Q01DX005 (ip), vehicle: saline): 112 % of control

O=C(C(=O)c1ccc(Cl)cc1)c1ccc(Cl)cc1
T/C (endpoint: mean survival time, dose: 6.25 mg/kg/injection, schedule: Q04DX003 (ip), vehicle: other): 94 % of control | T/C (endpoint: mean survival time, dose: 12.5 mg/kg/injection, schedule: Q04DX003 (ip), vehicle: other): 90 % of control | T/C (endpoint: mean survival time, dose: 25.0 mg/kg/injection, schedule: Q04DX003 (ip), vehicle: other): 90 % of control

c1cc[c]([Sn]([NH]c2ncnc3[nH]cnc23)([NH]c2ncnc3[nH]cnc23)[c]2ccccc2)cc1
T/C (endpoint: median survival time, dose: 12.5 mg/kg/injection, schedule: Q01DX009 (ip), vehicle: saline with Tween-80): 102 % of control | T/C (endpoint: median survival time, dose: 12.5 mg/kg/injection, schedule: Q01DX009 (ip), vehicle: suspension in saline): 98 % of control | T/C (endpoint: median survival time, dose: 25.0 mg/kg/injection, schedule: Q01DX009 (ip), vehicle: saline with Tween-80): 113 % of control | T/C (endpoint: median survival time, dose: 25.0 mg/kg/injection, schedule: Q01DX009 (ip), vehicle: saline): 154 % of control | T/C (endpoint: median survival time, dose: 25.0 mg/kg/injection, schedule: Q01DX009 (ip), vehicle: suspension in saline): 100 % of control | T/C (endpoint: median survival time, dose: 50.0 mg/kg/injection, schedule: Q01DX009 (ip), vehicle: saline with Tween-80): 118 % of control | T/C (endpoint: median survival time, dose: 50.0 mg/kg/injection, schedule: Q01DX009 (ip), vehicle: suspension in saline): 102 % of control | T/C (endpoint: median survival time, dose: 100.0 mg/kg/injection, schedule: Q01DX009 (ip), vehicle: saline with Tween-80): 112 % of control | T/C (endpoint: median survival time, dose: 100.0 mg/kg/injection, schedule: Q01DX009 (ip), vehicle: saline): 166 % of control | T/C (endpoint: median survival time, dose: 100.0 mg/kg/injection, schedule: Q01DX009 (ip), vehicle: suspension in saline): 102 % of control | T/C (endpoint: median survival time, dose: 200.0 mg/kg/injection, schedule: Q01DX009 (ip), vehicle: saline with Tween-80): 86 % of control | T/C (endpoint: median survival time, dose: 200.0 mg/kg/injection, schedule: Q01DX009 (ip), vehicle: saline): 203 % of control | T/C (endpoint: median survival time, dose: 200.0 mg/kg/injection, schedule: Q01DX009 (ip), vehicle: suspension in saline): 112 % of control

COc1ccc(CC2C(=O)NC(C)C(=O)N(C)C3Cc4ccc(cc4)Oc4cc(ccc4O)CC(C(=O)NC(C)C(=O)NC(C)C(=O)N2C)N(C)C3=O)cc1 (centres undefined)
T/C (endpoint: mean survival time, dose: 1.0 mg/kg/injection, schedule: Q01DX009 (ip), vehicle: saline with Tween-80): 112 % of control | T/C (endpoint: mean survival time, dose: 2.0 mg/kg/injection, schedule: Q01DX009 (ip), vehicle: saline with Tween-80): 112 % of control | T/C (endpoint: mean survival time, dose: 4.0 mg/kg/injection, schedule: Q01DX009 (ip), vehicle: saline with Tween-80): 116 % of control | T/C (endpoint: mean survival time, dose: 16.0 mg/kg/injection, schedule: Q01DX009 (ip), vehicle: saline with Tween-80): 122 % of control | T/C (endpoint: median survival time, dose: 2.0 mg/kg/injection, schedule: Q01DX009 (ip), vehicle: saline with Tween-80): 122 % of control | T/C (endpoint: median survival time, dose: 4.0 mg/kg/injection, schedule: Q01DX009 (ip), vehicle: saline with Tween-80): 124 % of control | T/C (endpoint: median survival time, dose: 16.0 mg/kg/injection, schedule: Q01DX009 (ip), vehicle: saline with Tween-80): 111 % of control

CCCC1CC[N-]CC1.CCCC1CC[N-]CC1.CCCC1CC[N-]CC1.CCCC1CC[N-]CC1.CS(C)=O.CS(C)=O.[Cl-].[Cl-].[Cl-].[Cl-].[Cl][Rh][Cl].[Rh+3]
T/C (endpoint: mean survival time, dose: 6.25 mg/kg/injection, schedule: Q01DX009 (ip), vehicle: water): 98 % of control | T/C (endpoint: mean survival time, dose: 12.5 mg/kg/injection, schedule: Q01DX009 (ip), vehicle: water): 112 % of control | T/C (endpoint: mean survival time, dose: 25.0 mg/kg/injection, schedule: Q04DX003 (ip), vehicle: water): 120 % of control

Nc1nc2c(ncn2-c2ccc(OCCNC(=O)Nc3ccc(S(=O)(=O)F)cc3)cc2)c(=O)[nH]1
T/C (endpoint: mean survival time, dose: 100.0 mg/kg/injection, schedule: Q01DX001 (ip), vehicle: saline with Tween-80): 95 % of control | T/C (endpoint: mean survival time, dose: 200.0 mg/kg/injection, schedule: Q01DX001 (ip), vehicle: saline with Tween-80): 94 % of control | T/C (endpoint: mean survival time, dose: 400.0 mg/kg/injection, schedule: Q01DX001 (ip), vehicle: saline with Tween-80): 94 % of control

CC(NC(=O)CCl)C(=O)O (centres undefined)
T/C [1]: 94 % of control | T/C [2]: 100 % of control

CCCCCCCC/C=C/CCCCCCCCCCCCCCBr
T/C [3]: 104 % of control | T/C [4]: 98 % of control | T/C [5]: 93 % of control

CC(=O)OCC1OC(N2C(=O)/C(=C/c3ccc([N+](=O)[O-])cc3)SC2=S)C(OC(C)=O)C(OC(C)=O)C1OC(C)=O (centres undefined)
T/C (endpoint: mean survival time, dose: 0.78 mg/kg/injection, schedule: Q01DX005 (ip), vehicle: distilled water + Tween-80): 96 % of control | T/C (endpoint: mean survival time, dose: 1.56 mg/kg/injection, schedule: Q01DX005 (ip), vehicle: distilled water + Tween-80): 93 % of control | T/C (endpoint: mean survival time, dose: 3.13 mg/kg/injection, schedule: Q01DX005 (ip), vehicle: distilled water + Tween-80): 93 % of control | T/C (endpoint: mean survival time, dose: 6.25 mg/kg/injection, schedule: Q01DX005 (ip), vehicle: distilled water + Tween-80): 90 % of control | T/C (endpoint: mean survival time, dose: 12.5 mg/kg/injection, schedule: Q01DX005 (ip), vehicle: distilled water + Tween-80): 93 % of control

[Au].[NH-]CC[NH-].[NH-]CC[NH-]
T/C (endpoint: mean survival time, dose: 6.25 mg/kg/injection, schedule: Q01DX001 (ip), vehicle: water): 89 % of control | T/C (endpoint: mean survival time, dose: 6.25 mg/kg/injection, schedule: Q04DX003 (ip), vehicle: water): 98 % of control | T/C (endpoint: mean survival time, dose: 12.5 mg/kg/injection, schedule: Q01DX001 (ip), vehicle: water): 94 % of control | T/C (endpoint: mean survival time, dose: 12.5 mg/kg/injection, schedule: Q04DX003 (ip), vehicle: water): 89 % of control | T/C (endpoint: mean survival time, dose: 25.0 mg/kg/injection, schedule: Q01DX001 (ip), vehicle: water): 101 % of control

CC1SC(=S)N(c2ccccc2)C1=O (centres undefined)
T/C [3]: 112 % of control | T/C [4]: 97 % of control | T/C [5]: 101 % of control

COc1ccc(/C=N/NC(=O)CNC(=O)Nc2ccc(F)cc2)cc1OC
T/C [6]: 96 % of control | T/C [7]: 92 % of control | T/C [8]: 92 % of control

CCOC(=O)C1C(=O)NCC1c1ccccc1 (centres undefined)
T/C [6]: 106 % of control | T/C [7]: 101 % of control | T/C [8]: 101 % of control

— PubChem BioAssay AID256 (DTP/NCI, 2004)
